Data from US20200197472A1, “COSMETIC COMPOSITIONS” (Mary Kay Inc., priority 2018, published 2020).

How the values were obtained:
Assay type in all cases: cell-based
[1] = system: fibronectin; test: Fibronectin secretion by cultured human fibroblasts (ELISA); conditions: 3 days, 1.0% final concentration
Excerpt: Laminin and fibronectin are major proteins in the dermal-epidermal junction (DEJ) (also referred to as the basement membrane). The DEJ is located between the dermis and the epidermis interlocks forming fingerlike projections called rete ridges. The cells of the epidermis receive their nutrients from the blood vessels in the dermis. The rete ridges increase the surface area of the epidermis that is exposed to these blood vessels and the needed nutrients. The DEJ provides adhesion of the two tissue compartments and governs the structural integrity of the skin. Laminin and fibronectin are two structural glycoproteins located in the DEJ. […] Laminin and fibronectin secretion was monitored by quantifying laminin and fibronectin in cell supernatants of cultured human fibroblasts treated for 3 days with culture medium with or without 1.0% final concentration of the test ingredient(s). Following incubation, laminin and fibronectin contents were measured using immunofluorescent antibodies directed against each protein in an enzyme linked immuno-sorbant assay (ELISA). Measurements were normalized for cellular metabolic activity, as determined by bioconversion of 3-(4,5-dimethylthiazol-2-yl)-5-(3-carboxymethoxyphenyl)-2-(4-sulfophenyl)-2H-tetrazolium (MTS).

[2] = system: procollagen peptide; test: Collagen stimulation: procollagen peptide production by human epidermal fibroblasts (ELISA); conditions: for Collagen Production, Activity compared to control: human fibroblasts treated 3 days
Excerpt: Collagen is an extracellular matrix protein critical for skin structure. Increased synthesis of collagen helps improve skin firmness and elasticity. This bioassay was used to examine the effect of Alpinia galangal leaf extract, dihydroxymethyl chromone, tripeptide-1, Alteromonas ferment filtrate, Pisum Sativum (pea) extract, and/or TAUT on the production of procollagen peptide (a precursor to collagen) by human epidermal fibroblasts. The endpoint of this assay was a spectrophotometric measurement that reflects the presence of procollagen peptide and cellular viability. The assay employed the quantitative sandwich enzyme immunoassay technique whereby a monoclonal antibody specific for procollagen peptide had been pre-coated onto a microplate. Standards and samples were pipetted into the wells and any procollagen peptide present was bound by the immobilized antibody. After washing away any unbound substances, an enzyme-linked polyclonal antibody specific for procollagen peptide was added to the wells. Following a wash to remove any unbound antibody-enzyme reagent, a substrate solution was added to the wells and color develops in proportion to the amount of procollagen peptide bound in the initial step using a microplate reader for detection at 450 nm. The color development was stopped and the intensity of the color was measured.
For generation of samples and controls, subconfluent normal human adult epidermal fibroblasts (Cascade Biologics) cultivated in standard DMEM growth medium with 10% fetal bovine serum (Mediatech) at 37° C. in 10% CO2, were treated with each of the ingredients for 3 days. Following incubation, cell culture medium was collected and the amount of procollagen peptide secretion quantified using a sandwich enzyme linked immuno-sorbant assay (ELISA) from Takara (# MK101).

[3] = system: hyaluronic acid; test: Production of hyaluronic acid in adult human dermal fibroblasts (HDFa), ELISA; conditions: for Hyaluronic Acid Production, Activity compared to control: HDFa cells, 24 hours
Method: Changes in the production of hyaluronic acid in human dermal fibroblasts due to each of Centella asiatica meristem cell culture, Alpinia galangal leaf extract, tripeptide-1, and TAUT were measured. Hyaluronic acid (HA) is a polysaccharide involved in stabilization of the structure of the matrix and is involved in providing turgor pressure to tissue and cells. As one non-limiting example, HA production in treated and non-treated adult human dermal fibroblasts (HDFa) cells was determined using the Hyaluronan DuoSet ELISA kit from R&D Systems (DY3614). In this assay, for production of samples, subconfluent HDFa cells from Cascade Biologics (C-13-5C) were incubated at 37° C. and 10% CO2 in starvation medium (0.15% fetal bovine serum and 1% Penicillin Streptomycin solution in Dulbecco's Modified Eagle Medium) for 72 hours prior to treatment. The cells were then incubated with fresh starvation medium with either test compound, positive control (phorbol 12-myristate 13-acetate from Sigma-Aldrich (P1585) and platelet derived growth factor from Sigma-Aldrich (P3201)), or no additive for 24 hours. Media was then collected and frozen at −80° C. until use in the ELISA assay.
Briefly, the ELISA assay employed a quantitative sandwich enzyme immunoassay technique whereby a capture antibody specific for HA can be pre-coated onto a microplate. Standards and media from treated and untreated cells were pipetted into the microplate wells to enable any HA present to be bound by the immobilized antibody. After washing away any unbound substances, an enzyme-linked detection antibody specific for HA was added to the wells. Following a wash to remove any unbound antibody-enzyme reagent, a substrate solution was added to the wells to allow color development in proportion to the amount of HA bound in the initial step. The color development was stopped at a specific time and the intensity of the color at 450 nm was measured using a microplate reader.

[4] = system: TNF-α; test: Inhibition of TNF-α production by PMA-treated human epidermal keratinocytes (ELISA)
Excerpt: The prototype ligand of the TNF superfamily, TNF-α, is a pleiotropic cytokine that plays a central role in inflammation. Increase in its expression is associated with an up regulation in pro-inflammatory activity. This bioassay was used to analyze the effect of tetradecyl aminobutyroylvalylaminobutyric urea trifluoroacetate, and/or Alteromonas ferment filtrate on the production of TNF-α by human epidermal keratinocytes. The endpoint of this assay was a spectrophotometric measurement that reflects the presence of TNF-α and cellular viability. The assay employed the quantitative sandwich enzyme immunoassay technique whereby a monoclonal antibody specific for TNF-α has been pre-coated onto a microplate. Standards and samples were pipetted into the wells and any TNF-α present was bound by the immobilized antibody. After washing away any unbound substances, an enzyme-linked polyclonal antibody specific for TNF-α was added to the wells. Following a wash to remove any unbound antibody-enzyme reagent, a substrate solution was added to the wells and color develops in proportion to the amount of TNF-α bound in the initial step using a microplate reader for detection at 450 nm. The color development was stopped and the intensity of the color can be measured. […]

Row | Molecule | Fibronectin Secretion, Activity compared to control [1] | Collagen Production, Activity compared to control [2] | production of hyaluronic acid (in words) [3] | Hyaluronic Acid Production, Activity compared to control [3] | production of TNF-α (in words) [4] | TNF-α Production, Activity compared to control ([4]; compared to PMA, human keratinocytes, PMA 10 ng/ml, 6 hours) | production of collagen (in words) [2]
1 | Cc1cc(=O)c2c(O)cc(O)cc2o1 [dihydroxymethyl chromone] | +28% | +20% |  |  |  |  | 
2 | tetradecyl aminobutyroylvalylaminobutyric urea trifluoroacetate [TAUT] |  | +18% | increases | +64% | inhibits | −100% | increases
3 | tripeptide-1 |  | +20% | increases | +93% |  |  | increases
